Experimental data taken from US20170334899A1, “AMINO-SUBSTITUTED ISOTHIAZOLES” (Bayer Pharma Aktiengesellschaft, priority 2014, published 2017).

Key:
CDK2/CycE = target: T1, CDK2/CycE (Homo sapiens, UniProt P24941); test: CDK2/CycE kinase assay (TR-FRET); format: biochemical; details: avg, read-out: CDK2 avg (IC50 [mol/l])
T1 construct: GST; purchased ProQinase GmbH (Freiburg, Germany); host or cells: insect cells (Sf9)
How it was run: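 Read-out is a TR-FRET 665/620 nm emission ratio from EDTA-stopped reactions detected with anti-pRB(pSer807/pSer811), Eu-labelled anti-mouse IgG and streptavidin-XL665, scaled between no-enzyme and uninhibited wells. Reaction: Sf9-expressed GST-CDK2/GST-CycE, 15 min compound preincubation, 10 μM ATP, 0.75 μM biotin-peptide, 25 min, 22° C., pH 8.0 Tris buffer.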

[1] = system: human cervical tumor cell line HeLa (ATCC CCL-2); test: SAC-Formation - Paclitaxel-Induced Assay; format: cell-based; details: Homo sapiens, HeLa, 24 h, HeLa cells, paclitaxel 0.05 μM, test range 0.005 μM-20 μM, read-out: IC50 [mol/l] SAC-Formation - Paclitaxel-Induced Assay
How it was run: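 Read-out is high-content imaging of anti-phospho-H3 Ser10 (mitosis) and Hoechst 33342 (DNA, cell number), with decreased mitotic fraction marking checkpoint breakthrough. Compounds (0.005–20 μM) and 0.05 μM paclitaxel co-added to overnight-plated HeLa for 24 h at 37° C; four-parameter Hill fit.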

| SMILES | IC50 (CDK2/CycE) [µM] | IC50 [1] [µM] |
| --- | --- | --- |
| Cc1nsc(Nc2cc(C#N)ccn2)c1C(=O)Nc1ccc(OC2CCNCC2)nc1 [Example 24, 5-[(4-Cyanopyridin-2-yl)amino]-3-methyl-N-[6-(piperidin-4-yloxy)pyridin-3-yl]-1,2-thiazole-4-carboxamide] | ≥ 20 | 20 |
| CCN1CCC(Oc2ccc(NC(=O)c3c(C)nsc3Nc3cc(C#N)ccn3)cn2)CC1 [Example 26, 5-[(4-Cyanopyridin-2-yl)amino]-N-{6-[(1-ethylpiperidin-4-yl)oxy]pyridin-3-yl}-3-methyl-1,2-thiazole-4-carboxamide] | ≥ 20 | 20 |
| Cc1nsc(Nc2ccc(C#N)cn2)c1C(=O)Nc1cccc(C(=O)NC2CC2)c1 [Example 250, 5-[(5-cyanopyridin-2-yl)amino]-N-[3-(cyclopropylcarbamoyl)phenyl]-3-methyl-1,2-thiazole-4-carboxamide] | > 20 | 4.7 |
| CCNC(=O)c1cccc(NC(=O)c2c(C)nsc2Nc2cnc3ccccc3n2)c1 [Example 251, N-[3-(ethylcarbamoyl)phenyl]-3-methyl-5-(quinoxalin-2-ylamino)-1,2-thiazole-4-carboxamide] | > 20 | 3 |
| Cc1nsc(Nc2cc(C#N)ccn2)c1C(=O)Nc1cccc(C(=O)NC(C)C)c1 [Example 254, 5-[(4-cyanopyridin-2-yl)amino]-N-[3-(isopropylcarbamoyl)phenyl]-3-methyl-1,2-thiazole-4-carboxamide] | > 20 | 2.3 |
| Cc1nsc(Nc2ccc(C#N)cn2)c1C(=O)Nc1cccc(C(=O)NC(C)C)c1 [Example 255, 5-[(5-cyanopyridin-2-yl)amino]-N-[3-(isopropylcarbamoyl)phenyl]-3-methyl-1,2-thiazole-4-carboxamide] | > 20 | 10 |
| COC(=O)CCCc1ccc(NC(=O)c2c(C)nsc2Nc2cc(C#N)ccn2)cc1 [Example 256, methyl 4-{4-[({5-[(4-cyanopyridin-2-yl)amino]-3-methyl-1,2-thiazol-4-yl}carbonyl)amino]phenyl}butanoate] | > 20 | 3.6 |
| COC(=O)CCc1cccc(NC(=O)c2c(C)nsc2Nc2cnc3ccccc3n2)c1 [Example 257, methyl 3-[3-({[3-methyl-5-(quinoxalin-2-ylamino)-1,2-thiazol-4-yl]carbonyl}amino)phenyl]propanoate] | > 20 | 2.7 |
| Cc1nsc(Nc2cnc(C(F)(F)F)cn2)c1C(=O)Nc1ccc(C(=O)NC2CCN(CC(F)F)CC2)cc1 [Example 259, N-(4-{[1-(2,2-difluoroethyl)piperidin-4-yl]carbamoyl}phenyl)-3-methyl-5-{[5-(trifluoromethyl)pyrazin-2-yl]amino}-1,2-thiazole-4-carboxamide] | > 20 | 4.4 |
| CCN1CCN(C(=O)c2ccc(NC(=O)c3c(C)nsc3Nc3cnc(C(F)(F)F)cn3)cc2)CC1 [Example 261, N-{4-[(4-ethylpiperazin-1-yl)carbonyl]phenyl}-3-methyl-5-{[5-(trifluoromethyl)pyrazin-2-yl]amino}-1,2-thiazole-4-carboxamide] | > 20 | 2.9 |
| Cc1nsc(Nc2cnc(C(F)(F)F)cn2)c1C(=O)Nc1ccc(C(=O)N2CCN(C)CC2)cc1 [Example 262, 3-methyl-N-{4-[(4-methylpiperazin-1 yl)carbonyl]phenyl}-5-{[5-(trifluoromethyl)pyrazin-2-yl]amino}-1,2-thiazole-4-carboxamide] | > 20 | 4.8 |
| Cc1nsc(Nc2cc(C#N)ccn2)c1C(=O)Nc1ccc(OC2CCN(CC(F)F)CC2)nc1 [Example 263, 5-[(4-cyanopyridin-2-yl)amino]-N-(6-{[1-(2,2-difluoroethyl)piperidin-4-yl]oxy}pyridin-3-yl)-3-methyl-1,2-thiazole-4-carboxamide] | > 20 | 3.5 |
| Cc1nsc(Nc2cnc3ccccc3n2)c1C(=O)Nc1cccc(NS(=O)(=O)C2CCN(CCC(F)(F)F)CC2)c1 [Example 283, 3-methyl-5-(quinoxalin-2-ylamino)-N-[3-({[1-(3,3,3-trifluoropropyl)piperidin-4-yl]sulfonyl}amino)phenyl]-1,2-thiazole-4-carboxamide] |  | 7.1 |
| Cc1nsc(Nc2cnc3ccccc3n2)c1C(=O)Nc1cccc(NS(=O)(=O)C2CN(CC(F)F)C2)c1 [Example 286, N-[3-({[1-(2,2-difluoroethyl)azetidin-3-yl]sulfonyl}amino)phenyl]-3-methyl-5-(quinoxalin-2-ylamino)-1,2-thiazole-4-carboxamide] |  | 6.5 |
| Cc1nsc(Nc2cnc3ccccc3n2)c1C(=O)Nc1cccc(NS(=O)(=O)C2CCN(CC(F)(F)F)C2)c1 (stereo not shown) [Example 289, 3-methyl-5-(quinoxalin-2-ylamino)-N-[3-({[1-(2,2,2-trifluoroethyl)pyrrolidin-3-yl]sulfonyl}amino)phenyl]-1,2-thiazole-4-carboxamide] |  | 3.3 |
| Cc1nsc(Nc2cnc(C(F)(F)F)cn2)c1C(=O)Nc1ccc(F)c(OCC2CCN(C(CF)CF)CC2)c1 [Example 312, N-(3-{[1-(1,3-difluoropropan-2-yl)piperidin-4-yl]methoxy}-4-fluorophenyl)-3-methyl-5-{[5-(trifluoromethyl)pyrazin-2-yl]amino}-1,2-thiazole-4-carboxamide] | ≥ 20 |  |

More lines, now with the values ahead:

| IC50 (CDK2/CycE) [µM] | IC50 [1] [µM] | SMILES |
| --- | --- | --- |
| ≥ 20 | 0.15 | Cc1nsc(Nc2cnc3ccccc3n2)c1C(=O)Nc1ccc(OC2CCN(CC(F)(F)F)CC2)nc1 [Example 21, 3-Methyl-5-(quinoxalin-2-ylamino)-N-(6-{[1-(2,2,2-trifluoroethyl)piperidin-4-yl]oxy}-pyridin-3-yl)-1,2-thiazole-4-carboxamide] |
| ≥ 20 | 2.1 | CC(=O)N1CCC(Oc2ccc(NC(=O)c3c(C)nsc3Nc3cnc4ccccc4n3)cn2)CC1 [Example 22, N-{6-[(1-acetylpiperidin-4-yl)oxy]pyridin-3-yl}-3-methyl-5-(quinoxalin-2-ylamino)-1,2-thiazole-4-carboxamide] |
| ≥ 20 | 0.032 | Cc1nsc(Nc2cc(C#N)ccn2)c1C(=O)Nc1ccc(OC2CCN(C(=O)OC(C)(C)C)CC2)nc1 [Example 23, tert-Butyl 4-({5-[({5-[(4-cyanopyridin-2-yl)amino]-3-methyl-1,2-thiazol-4-yl}-carbonyl)amino]pyridin-2-yl}oxy)piperidine-1-carboxylate] |
| ≥ 20 | 0.066 | Cc1nsc(Nc2cc(C#N)ccn2)c1C(=O)Nc1ccc(OC2CCN(CC(F)(F)F)CC2)nc1 [Example 25, 5-[(4-Cyanopyridin-2-yl)amino]-3-methyl-N-(6-{[1-(2,2,2-trifluoroethyl)piperidin-4-yl]oxy}pyridin-3-yl)-1,2-thiazole-4-carboxamide] |
| ≥ 20 | 0.13 | Cc1nsc(Nc2ccc(C#N)cn2)c1C(=O)Nc1ccc(OC2CCN(C(=O)OC(C)(C)C)CC2)nc1 [Example 27, tert-Butyl 4-({5-[({5-[(5-cyanopyridin-2-yl)amino]-3-methyl-1,2-thiazol-4-yl}-carbonyl)amino]pyridin-2-yl}oxy)piperidine-1-carboxylate] |
| > 20 | 0.94 | Cc1nsc(Nc2cnc3ccccc3n2)c1C(=O)Nc1ccc(N2CCN(C(=O)OC(C)(C)C)CC2)nc1 [Example 248, tert-butyl 4-[5-({[3-methyl-5-(quinoxalin-2-ylamino)-1,2-thiazol-4-yl]carbonyl}amino)pyridin-2-yl]piperazine-1-carboxylate] |
| > 20 | 1.1 | Cc1nsc(Nc2cnc3ccccc3n2)c1C(=O)Nc1cccc(C(=O)NC2CC2)c1 [Example 249, N-[3-(cyclopropylcarbamoyl)phenyl]-3-methyl-5-(quinoxalin-2-ylamino)-1,2-thiazole-4-carboxamide] |
| > 20 | 0.12 | CCNC(=O)c1cccc(NC(=O)c2c(C)nsc2Nc2ccc(C#N)cn2)c1 [Example 252, 5-[(5-cyanopyridin-2-yl)amino]-N-[3-(ethylcarbamoyl)phenyl]-3-methyl-1,2-thiazole-4-carboxamide] |
| > 20 | 2.2 | Cc1nsc(Nc2cnc3ccccc3n2)c1C(=O)Nc1cccc(C(=O)NC(C)C)c1 [Example 253, N-[3-(isopropylcarbamoyl)phenyl]-3-methyl-5-(quinoxalin-2-ylamino)-1,2-thiazole-4-carboxamide] |
| > 20 | 2 | Cc1nsc(Nc2cnc3ccccc3n2)c1C(=O)Nc1cccc(NS(=O)(=O)C2CCN(C(=O)OC(C)(C)C)CC2)c1 [Example 258, tert-butyl 4-{[3-({[3-methyl-5-(quinoxalin-2-ylamino)-1,2-thiazol-4-yl]carbonyl}amino)phenyl]sulfamoyl} piperidine-1-carboxylate] |
| > 20 | 0.4 | Cc1nsc(Nc2cnc(C(F)(F)F)cn2)c1C(=O)Nc1ccc(C(=O)N2CCN(CC(F)(F)F)CC2)cc1 [Example 260, 3-methyl-N-(4-{[4-(2,2,2-trifluoroethyl)piperazin-1-yl]carbonyl}phenyl)-5-{[5-(trifluoromethyl)pyrazin-2-yl]amino}-1,2-thiazole-4-carboxamide] |
| > 20 | 0.072 | Cc1nsc(Nc2cnc(C(F)(F)F)cn2)c1C(=O)Nc1ccc(F)c(OC2CCN(CC(F)(F)F)CC2)c1 [Example 264, N-(4-fluoro-3-{[1-(2,2,2-trifluoroethyl)piperidin-4-yl]oxy}phenyl)-3-methyl-5-{[5-(trifluoromethyl)pyrazin-2-yl]amino}-1,2-thiazole-4-carboxamide] |
